In patent US7994123B2, “Hybrid proteins with ErbB4 extracellular domain and neuregulin heparin-binding domain for targeting” (Wayne State University, priority 2004, dated 2011):

T1: NRG1 (Homo sapiens, UniProt Q02297)
T1 construct: the intact IgEGF form of NRG1 corresponds to amino acids 14-246; purchased R&D (Minneapolis Minn.)
T1 sequence (Q02297 14-246 isoform Q02297-6): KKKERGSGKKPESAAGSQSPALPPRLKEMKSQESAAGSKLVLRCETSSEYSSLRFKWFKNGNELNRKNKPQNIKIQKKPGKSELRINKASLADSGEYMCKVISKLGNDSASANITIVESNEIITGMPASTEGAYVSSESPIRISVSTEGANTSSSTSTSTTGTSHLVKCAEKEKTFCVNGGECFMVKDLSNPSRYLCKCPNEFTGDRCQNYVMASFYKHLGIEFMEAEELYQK

B1: IgB4: soluble NRG antagonist: ECD of erbB4 receptor fused to Fc portion of human IgG1 (protein)
chain: QSVCAGTENKLSSLSDLEQQYRALRKYYENCEVVMGNLEITSIEHNRDLSFLRSVREVTGYVLVALNQFRYLPLENLRIIRGTKLYEDRYALAIFLNYRKDGNFGLQELGLKNLTEILNGGVYVDQNKFLCYADTIHWQDIVRNPWPSNLTLVSTNGSSGCGRCHKSCTGRCWGPTENHCQTLTRTVCAEQCDGRCYGPYVSDCCHRECAGGCSGPKDTDCFACMNFNDSGACVTQCPQTFVYNPTTFQLEHNFNAKYTYGAFCVKKCPHNFVVDSSSCVRACPSSKMEVEENGIKMCKPCTDICPKACDGIGTGSLMSAQTVDSSNIDKFINCTKINGNLIFLVTGIHGDPYNAIEAIDPEKLNVFRTVREITGFLNIQSWPPNMTDFSVFSNLVTIGGRVLYSGLSLLILKQQGITSLQFQSLKEISAGNIYITDNSNLCYYHTINWTTLFSTINQRIVIRDNRKAENCTAEGMVCNHLCSSDGCWGPGPDQCLSCRRFSRGRICIESCNLYDGEFREFENGSICVECDPQCEKMEDGLLTCHGPGPDNCTKCSHFKDGPNCVEKCPDGLQGANSFIFKYADPDRECHPCHPNCTQGCNGPTSHDCIYYPWTGHSTLPQHARTP
modifications: left off: a dimerising Fc or GST
notes: soluble NRG antagonist: ECD of erbB4 receptor fused to Fc portion of human IgG1

Experiments:
[1] = tested on: erbB phosphorylation (p185) in L6 muscle cells; experiment: NRG1-induced erbB phosphorylation after reducing endogenous HSPG sulfation; assay type: cell-based; settings: chlorate 48 hours
Protocol: Cell Cultures and Western Blots for p185 phosphorylation—L6 Cells were used to quantify erbB receptor phosphotyrosine (p185) as described (WO 03/012045; Li & Loeb, supra). Cells were plated at 50,000 cells/well and grown for 8 days. Chlorate was filter sterilized and incubated with L6 cells for 2 days prior to the assay. Inhibition assays of p185 were performed by pre-incubating 75 pM of IgEGF NRG1 and various concentrations of the heparins at room temp for 20 minutes. 150 μL of this mixture was then applied to 8 day-old L6 cells for 45 minutes at 37° C. in […]. The medium was aspirated, and the cells were solubilized in 50 μL sample buffer and boiled for 5 minutes as described previously (WO 03/012045; Li & Loeb, supra) 15 μL of this was resolved on a 5% denaturing polyacrylamide gel. Phosphorylated forms of the erbB receptors (p185) were detected by western blot analysis using the phosphotyrosine monoclonal antibody 4G10 (Upstate) and then verified and quantified by reprobing with a mixture of antibodies against erbB2 (Neomarkers Ab-17) and erbB3 (Neomarkers Ab-6). Quantitation was performed by determining the ratio of p185/(erbB2+erbB3) using Metamorph Imaging System (Universal Imaging Corp) on non-saturated images as described (Esper, R M & Loeb, J A (2004) J Neurosci 24:6218-27) […]

NRG1 = target: T1, NRG1; experiment: Gel mobility shift assay (GMSA); assay type: binding; settings: 35 ng NRG1, 20 minutes; heparins at 0, 1, 10, 100 μg/ml
Protocol: Gel Mobility Shift Assay (GMSA)—NRG1 alone, or NRG1 plus various heparins at various concentrations were incubated with binding buffer (2.7 mM KCl, 4.3 mM Na2HPO4, 10 mM MgCl2, 1.4 mM KH2PO4, 12% glycerol, 1 mM DTT.) for 20 minutes and run on a 6% (29:1 acrylamide:bis) non-denaturing gel (10 mM Tris (pH 7.4), 1 mM EDTA) for 20 minutes at 200 V as described (Wu, Z L et al. (2002) FASEB J 16, 539-45; Wu, Z L et al. (2003) J Biol Chem 278:17121-29). […] However, band resolution was sharper at pH 8.0 and was therefore used for our studies here. Protein was transferred to a polyvinylidene fluoride membrane (Millipore corp.) for 1 hr at 100V. NRG1 bands were detected by western blot analysis using a polyclonal rabbit antiserum (AD03) developed against the IgEGF polypeptide (Assay Designs Inc.). The filters were then probed with a goat anti-rabbit antibody coupled to peroxidase (Chemicon), exposed to X-blue film (Eastman Kodak Co.) after treatment with chemiluminescence reagents, and bands were quantified as above.

[2] = tested on: NRG1-induced erbB receptor phosphorylation (p185) in L6 cells; experiment: Inhibition of NRG1-induced p185 by heparins in L6 cells; assay type: cell-based; settings: for inhibition of NRG1-induced erbB receptor phosphorylation (p185): 75 pM IgEGF NRG1 pre-incubated with heparin 20 minutes, L6 cells 45 minutes
Protocol: Cell Cultures and Western Blots for p185 phosphorylation—L6 Cells were used to quantify erbB receptor phosphotyrosine (p185) as described (WO 03/012045; Li & Loeb, supra). Cells were plated at 50,000 cells/well and grown for 8 days. Chlorate was filter sterilized and incubated with L6 cells for 2 days prior to the assay. Inhibition assays of p185 were performed by pre-incubating 75 pM of IgEGF NRG1 and various concentrations of the heparins at room temp for 20 minutes. 150 μL of this mixture was then applied to 8 day-old L6 cells for 45 minutes at 37° C. in […]. The medium was aspirated, and the cells were solubilized in 50 μL sample buffer and boiled for 5 minutes as described previously (WO 03/012045; Li & Loeb, supra) 15 μL of this was resolved on a 5% denaturing polyacrylamide gel. Phosphorylated forms of the erbB receptors (p185) were detected by western blot analysis using the phosphotyrosine monoclonal antibody 4G10 (Upstate) and then verified and quantified by reprobing with a mixture of antibodies against erbB2 (Neomarkers Ab-17) and erbB3 (Neomarkers Ab-6). Quantitation was performed by determining the ratio of p185/(erbB2+erbB3) using Metamorph Imaging System (Universal Imaging Corp) on non-saturated images as described (Esper, R M & Loeb, J A (2004) J Neurosci 24:6218-27)

[3] = tested on: MCF10CA1 human breast cancer cells; experiment: Cell proliferation assay, MCF10CA1; assay type: cell-based; settings: IgB4 conditioned media, 10 μM AG1478 or 100 μg/ml Trastuzumab
Protocol: Cell proliferation assays: All three breast epithelial cell lines were plated at 5000 cells/well in 48 well plates in regular MCF10A/AT or MCF10CA1 media. After incubation for 3 days, 1 nM NRG in MCF10A/AT media or just MCF10A/AT media alone were applied to the cells for another 24 hours followed by washing them with culture media and then counting cell numbers using an hemocytometer on the 4th, 5th, 6th, 7th and 8th day.
(§1) After 2 days, the Optimem I conditioned media was concentrated by Centricon at 4° C. 40 μl of IgB4 conditioned media or 10 μM of tyrosine kinase inhibitor AG1478 were combined with […] 1 nM NRG in MCF10A/AT media for 15 min at room temperature before being added to MCF10CA1 cells for 30 min treatment. […] The amount of each antagonist was determined empirically based on its ability to block NRG-induced activation of L6 cells.

[4] = tested on: erbB receptor phosphorylation (p185) in MCF10CA1 cells; experiment: p185 receptor phosphorylation western blot, MCF10CA1; assay type: cell-based, human; settings: IgB4 conditioned media
Protocol: Western blots and L6 muscle assays: P185 receptor phosphorylation of the three cell lines was measured by phosphotyrosine western blots after NRG treatment for 30 min on 3 day old cultures as described in WO 03/012045 and Li Q & Loeb J A (2001) J Biol Chem; 276:38068-75. […] The media was discarded and phosphotyrosine western blots were performed as above. The membranes were stripped and reprobed with polyclonal rabbit erbB2 for the detection of overall erbB2 protein that was used for quantitation.
as §1

Molecule | shift of NRG1 mobility (NRG1 binding) (NRG1) | inhibition of NRG1-induced erbB receptor phosphorylation (p185) [2] | further results
[O-][Cl+2]([O-])O [chlorate, Sodium chlorate] | – | – | reduction of receptor phosphorylation, EGF form ([1]; EGF form lacking the heparin-binding domain): no reduction; reduction of receptor phosphorylation, IgEGF NRG1 ([1]; full-length heparin-binding NRG1 (IgEGF)): 53%
De-2O sulfated heparin | shifted NRG1 better than De-N sulfated heparin but less than fully sulfated heparin | intermediate effects | –
De-6O sulfated heparin | shifted NRG1 better than De-N sulfated heparin but less than fully sulfated heparin | intermediate effects | –
De-N sulfated heparin | did not shift NRG1 | little inhibition even at 100 μg/ml | effect on receptor phosphorylation at low concentration ([2]; 1 μg/ml): modest stimulatory effect
heparin | shift NRG1 in a dose-dependent manner | inhibited by fully-sulfated heparin in a dose-dependent manner | –
B1 | – | – | MCF10CA1 proliferation with exogenous NRG ([3]; 1 nM NRG): blocked MCF10CAL cell proliferation induced by exogenous NRG treatment; MCF10CA1 growth rate without exogenous NRG [3]: significantly reduced the baseline growth rate; exogenous NRG-induced p185 erbB receptor phosphorylation ([4]; 1 nM NRG, 30 min, AG1478 or 100 μg/ml Trastuzumab (24 h pre-treatment)): effectively blocked; basal p185 erbB receptor phosphorylation ([4]; no exogenous NRG, 10 μM AG1478 or 100 μg/ml Trastuzumab (24 h pre-treatment)): effectively blocked
